According to patent publication US9447136B2, “Semisynthetic derivatives of Nystatin A1” (BLIRT S.A., priority 2012, dated 2016):

How the values were obtained:
[1] = tested on: Candida albicans ATCC 10231; test: Antifungal activity in vitro, serial dilution in RPMI 1640; type: cell-based; details: Table 2A, RPMI 1640, pH 7.0; for Antifungal activity Candida albicans ATCC 10231 IC50: A531 50% of control; for Antifungal activity Candida albicans ATCC 10231 MIC: A531 at most 20% of control
Description: (§1) For the determination of antifungal activity in vitro we used method of serial dilution in buffered medium RPMI 1640, pH 7.0, in a 96-wells microplates, according to the standard procedure (National Committee for Clinical Laboratory Standards. Reference method for broth dilution antifungal susceptibility testing of yeast, approved standard, 2nd ed. M27-A2 vol. 22 Wayne, Pa., 2002). The optical density of cells suspension was measured using a microplates reader (Victor^3, Perkin-Elmer) at the wavelength λ=531 nm (A531). On the basis of obtained results the diagrams of relation between A531 values and concentration of examined compound were made. From these graphs, the IC50 values were read, which were the interpolated concentrations of a tested compound, at which the A531 value was exactly 50% of the A531 value for the control sample. Moreover, MIC values, that are the lowest concentration of tested compound at which the A531 value were at most 20% of the A531 value measured for the control sample.

Candida krusei DSM 6128 = test: as above; type: cell-based; details: Table 2A; RPMI 1640, pH 7.0
Description: as §1

[2] = tested on: Saccharomyces cerevisiae ATCC 9763; test: as above; type: cell-based; details: Table 2A; RPMI 1640, pH 7.0; A531 at most 20% of control
Description: as §1

[3] = tested on: Candida lusitaniae DSM 70102; test: as above; type: cell-based; details: Table 2A; RPMI 1640, pH 7.0
Description: as §1

[4] = tested on: Candida glabrata DSM 11226; test: as above; type: cell-based; details: Table 2A; RPMI 1640, pH 7.0
Description: as §1

[5] = tested on: Candida tropicalis KKP 334; test: as above; type: cell-based; details: Table 2A; RPMI 1640, pH 7.0
Description: as §1

Human erythrocytes = test: Hemotoxicity (hemolytic activity); details: human erythrocytes; for EH10: concentration causing 10% of hemolysis
Description: The hemotoxicity determination were carried out by the serial dilutions method, according to the procedure described earlier (Ślisz, M., et al., E., J Antibiot 57: 669-678 (2004)). Human erythrocytes were suspensed in the solution of saline to obtain a cell density of suspension 2×10^7/ml. Suitable amounts of diluted solutions of compounds were added to the cell suspension in tubes and were incubated at 37° C. for 30 minutes and then centrifuged (1700×g, 10 min, 4° C.). The concentration of hemoglobin in supernatant after centrifugation of erythrocytes suspension were determined by measuring the absorbance at wavelength λ=540 nm (A540). The maximum level of hemolysis was obtained after incubation of cells suspension in the presence of 0.1% Tritone X-100 (control sample). […] From these graphs, the EH50 values were read which are the interpolated concentrations of compound, for which the A540 value is exactly 50% of the A540 value measured for the control sample.

## C[C@@H]1[C@H](O)[C@@H](C)/C=C/C=C/CC/C=C/C=C/C=C/C=C/[C@H](O[C@@H]2O[C@H](C)[C@@H](O)[C@H](NC3CC(=O)N(CCCN(C)C)C3=O)[C@@H]2O)C[C@@H]2O[C@](O)(C[C@@H](O)C[C@@H](O)[C@H](O)CC[C@@H](O)C[C@@H](O)CC(=O)O[C@H]1C)C[C@H](O)[C@H]2C(=O)O (stereo partly shown) [Compound N6, N—[N′-3-(N″,N″-dimethylamino)propylsuccinimidyl]nystatin A1]
[1]
  Antifungal activity Candida albicans ATCC 10231 IC50: 5.52 µg/mL
  Antifungal activity Candida albicans ATCC 10231 MIC: 8 µg/mL
Candida krusei DSM 6128
  Antifungal activity Candida krusei DSM 6128 MIC: 16 µg/mL
[2]
  Antifungal activity Saccharomyces cerevisiae ATCC 9763 MIC: 8 µg/mL
[3]
  Antifungal activity Candida lusitaniae DSM 70102 MIC: 4 µg/mL
[4]
  Antifungal activity Candida glabrata DSM 11226 MIC: 16 µg/mL
[5]
  Antifungal activity Candida tropicalis KKP 334 MIC: 8 µg/mL

## CC1OC(O[C@H]2/C=C/C=C/C=C/C=C/CC/C=C/C=C/[C@H](C)[C@@H](O)[C@@H](C)[C@H](C)OC(=O)C[C@H](O)C[C@H](O)C[C@H](O)CC[C@@H](O)[C@H](O)CC3(O)C[C@H](O)[C@@H](C(=O)O)[C@H](C2)O3)C(O)C(NC2CC(=O)N(CCN(C)C)C2=O)C1O (stereo partly shown) [Compound N7, N—[N′-2-(N″,N″-dimethylamino)ethylsuccinimidyl]nystatin A1]
[1]
  Antifungal activity Candida albicans ATCC 10231 IC50: 3.99 µg/mL
  Antifungal activity Candida albicans ATCC 10231 MIC: 8 µg/mL
Candida krusei DSM 6128
  Antifungal activity Candida krusei DSM 6128 MIC: 16 µg/mL
[2]
  Antifungal activity Saccharomyces cerevisiae ATCC 9763 MIC: 8 µg/mL
[3]
  Antifungal activity Candida lusitaniae DSM 70102 MIC: 4 µg/mL
[4]
  Antifungal activity Candida glabrata DSM 11226 MIC: 8 µg/mL
[5]
  Antifungal activity Candida tropicalis KKP 334 MIC: 8 µg/mL

## CC1OC(O[C@H]2/C=C/C=C/C=C/C=C/CC/C=C/C=C/[C@H](C)[C@@H](O)[C@@H](C)[C@H](C)OC(=O)C[C@H](O)C[C@H](O)C[C@H](O)CC[C@@H](O)[C@H](O)CC3(O)C[C@H](O)[C@@H](C(=O)O)[C@H](C2)O3)C(O)C(NC2CC(=O)N(CCN3CCN(C)CC3)C2=O)C1O (stereo partly shown) [Compound N9, N—[N′-2-(4-methylpiperazin-1-yl)ethylsuccinimidyl]nystatin A1]
[1]
  Antifungal activity Candida albicans ATCC 10231 IC50: 5.62 µg/mL
  Antifungal activity Candida albicans ATCC 10231 MIC: 8 µg/mL
Candida krusei DSM 6128
  Antifungal activity Candida krusei DSM 6128 MIC: 16 µg/mL
[2]
  Antifungal activity Saccharomyces cerevisiae ATCC 9763 MIC: 8 µg/mL
[3]
  Antifungal activity Candida lusitaniae DSM 70102 MIC: 4 µg/mL
[4]
  Antifungal activity Candida glabrata DSM 11226 MIC: 16 µg/mL
[5]
  Antifungal activity Candida tropicalis KKP 334 MIC: 8 µg/mL

## CC1OC(O[C@H]2/C=C/C=C/C=C/C=C/CC/C=C/C=C/[C@H](C)[C@@H](O)[C@@H](C)[C@H](C)OC(=O)C[C@H](O)C[C@H](O)C[C@H](O)CC[C@@H](O)[C@H](O)CC3(O)C[C@H](O)[C@@H](C(=O)O)[C@H](C2)O3)C(O)C(NC2CC(=O)N(CC(C)(C)CN(C)C)C2=O)C1O (stereo partly shown) [Compound N10, N—[N′-3-(N″,N″-dimethylamino)-2,2-dimethylpropylsuccinimidyl]nystatin A1]
[1]
  Antifungal activity Candida albicans ATCC 10231 IC50: 5.47 µg/mL
  Antifungal activity Candida albicans ATCC 10231 MIC: 8 µg/mL
Candida krusei DSM 6128
  Antifungal activity Candida krusei DSM 6128 MIC: 16 µg/mL
[2]
  Antifungal activity Saccharomyces cerevisiae ATCC 9763 MIC: 8 µg/mL
[3]
  Antifungal activity Candida lusitaniae DSM 70102 MIC: 4 µg/mL
[4]
  Antifungal activity Candida glabrata DSM 11226 MIC: 16 µg/mL
[5]
  Antifungal activity Candida tropicalis KKP 334 MIC: 8 µg/mL

## C[C@@H]1[C@H](O)[C@@H](C)/C=C/C=C/CC/C=C/C=C/C=C/C=C/[C@H](O[C@@H]2O[C@H](C)[C@@H](O)[C@H](NC(=S)NCCN3CCN(C)CC3)[C@@H]2O)C[C@@H]2O[C@](O)(C[C@@H](O)C[C@@H](O)[C@H](O)CC[C@@H](O)C[C@@H](O)CC(=O)O[C@H]1C)C[C@H](O)[C@H]2C(=O)O [Compound N15, N-{3-[2-(4-methylpiperazin-1-yl)ethyl]thioureidyl}nystatin A1]
[1]
  Antifungal activity Candida albicans ATCC 10231 IC50: 5.74 µg/mL
  Antifungal activity Candida albicans ATCC 10231 MIC: 8 µg/mL
Candida krusei DSM 6128
  Antifungal activity Candida krusei DSM 6128 MIC: 16 µg/mL
[2]
  Antifungal activity Saccharomyces cerevisiae ATCC 9763 MIC: 8 µg/mL
[3]
  Antifungal activity Candida lusitaniae DSM 70102 MIC: 4 µg/mL
[4]
  Antifungal activity Candida glabrata DSM 11226 MIC: 16 µg/mL
[5]
  Antifungal activity Candida tropicalis KKP 334 MIC: 8 µg/mL

## C[C@@H]1[C@H](O)[C@@H](C)/C=C/C=C/CC/C=C/C=C/C=C/C=C/[C@H](O[C@@H]2O[C@H](C)[C@@H](O)[C@H](NC(=S)NCCN3CCCC3)[C@@H]2O)C[C@@H]2O[C@](O)(C[C@@H](O)C[C@@H](O)[C@H](O)CC[C@@H](O)C[C@@H](O)CC(=O)O[C@H]1C)C[C@H](O)[C@H]2C(=O)O [Compound N16, N-{3-[2-(pyrrolidin-1-yl)ethyl]thioureidyl}nystatin A1]
[1]
  Antifungal activity Candida albicans ATCC 10231 IC50: 3.04 µg/mL
  Antifungal activity Candida albicans ATCC 10231 MIC: 4 µg/mL
Candida krusei DSM 6128
  Antifungal activity Candida krusei DSM 6128 MIC: 8 µg/mL
[2]
  Antifungal activity Saccharomyces cerevisiae ATCC 9763 MIC: 4 µg/mL
[3]
  Antifungal activity Candida lusitaniae DSM 70102 MIC: 4 µg/mL
[4]
  Antifungal activity Candida glabrata DSM 11226 MIC: 8 µg/mL
[5]
  Antifungal activity Candida tropicalis KKP 334 MIC: 4 µg/mL

## C[C@@H]1[C@H](O)[C@@H](C)/C=C/C=C/CC/C=C/C=C/C=C/C=C/[C@H](O[C@@H]2O[C@H](C)[C@@H](O)[C@H](NC(=O)[C@@H](N)Cc3ccc([N+](=O)[O-])cc3)[C@@H]2O)C[C@@H]2O[C@](O)(C[C@@H](O)C[C@@H](O)[C@H](O)CC[C@@H](O)C[C@@H](O)CC(=O)O[C@H]1C)C[C@H](O)[C@H]2C(=O)O [Compound N40, N-L-(4-nitrophenyl)alanylnystatin A1]
Human erythrocytes; 37° C., 30 minutes, concentration causing 50% hemolysis, maximum concentration 300 μg/ml
  Hemotoxicity BEH50: >300 µg/mL
Human erythrocytes; 300 μg ml^−1
  % of hemolysis at the concentration 300 μg ml^−1: 7.45%
Human erythrocytes
  EH10: >300 µg/mL
[1]
  Antifungal activity Candida albicans ATCC 10231 IC50: 5.56 µg/mL
  Antifungal activity Candida albicans ATCC 10231 MIC: 8 µg/mL
Candida krusei DSM 6128
  Antifungal activity Candida krusei DSM 6128 MIC: 16 µg/mL
[2]
  Antifungal activity Saccharomyces cerevisiae ATCC 9763 MIC: 8 µg/mL
[4]
  Antifungal activity Candida glabrata DSM 11226 MIC: 16 µg/mL
[5]
  Antifungal activity Candida tropicalis KKP 334 MIC: 8 µg/mL

## CNC(C)(C)C(=O)NC1C(O)C(C)OC(O[C@H]2/C=C/C=C/C=C/C=C/CC/C=C/C=C/[C@H](C)[C@@H](O)[C@@H](C)[C@H](C)OC(=O)C[C@H](O)C[C@H](O)C[C@H](O)CC[C@@H](O)[C@H](O)CC3(O)C[C@H](O)[C@@H](C(=O)O)[C@H](C2)O3)C1O (stereo partly shown) [Compound N43, N-[2-(N-methylamino)-2-methylpropan]nystatin A1]
Human erythrocytes
  EH10: 283.84 µg/mL
[1]
  Antifungal activity Candida albicans ATCC 10231 IC50: 5.46 µg/mL
  Antifungal activity Candida albicans ATCC 10231 MIC: 8 µg/mL
Candida krusei DSM 6128
  Antifungal activity Candida krusei DSM 6128 MIC: 16 µg/mL
[2]
  Antifungal activity Saccharomyces cerevisiae ATCC 9763 MIC: 8 µg/mL
[4]
  Antifungal activity Candida glabrata DSM 11226 MIC: 8 µg/mL
[5]
  Antifungal activity Candida tropicalis KKP 334 MIC: 8 µg/mL
